Assay results reported in ChEMBL document CHEMBL3580638, “Targeting HER-2 over expressed breast cancer cells with 2-cyclohexyl-N-[(Z)-(substituted phenyl/furan-2-yl/thiophene-2-yl)methylidene]hydrazinecarbothioamide” (Bioorg Med Chem Lett, 2014).
The source made the active and inactive calls. The calls are words filed in the database; no cut-off is given here.

Experiments:
[1] = tested on: MDA-MB-231; experiment: Cytotoxicity against human MDA-MB-231 cells assessed as cell growth inhibition after 48 hrs by WST-1 assay; assay type: functional, cell-based; details: MDA-MB-231, 48 h
[2] = Cytotoxicity against human SKBR3 cells overexpressing HER2 assessed as cell growth inhibition after 48 hrs by WST-1 assay; assay type: functional, cell-based; details: SK-BR-3, 48 h
[3] = tested on: MCF7; experiment: Cytotoxicity against human MCF7 cells assessed as cell growth inhibition after 48 hrs by WST-1 assay; assay type: functional, cell-based; details: MCF7, 48 h
[4] = tested on: MDA-MB-468; experiment: Cytotoxicity against human MDA-MB-468 cells assessed as cell growth inhibition after 48 hrs by WST-1 assay; assay type: functional, cell-based; details: MDA-MB-468, 48 h
[5] = tested on: SK-BR-3; experiment: Decrease in ALDH activity in human SKBR3 cells overexpressing HER2 assessed as reduction in ALDH-positive population at 30 uM after 72 hrs by Aldefluor assay; assay type: functional
[6] = tested on: SK-BR-3; experiment: Decrease in ALDH activity in human SKBR3 cells overexpressing HER2 assessed as ALDH-positive population by flow cytometry in presence of ALDH inhibitor DEAB (reference value: 0.7%); assay type: functional; parameters: scale not given: the % may be the effect or the level left
[7] = tested on: SK-BR-3; experiment: Decrease in ALDH activity in human SKBR3 cells overexpressing HER2 assessed as ALDH-positive population by flow cytometry in absence of ALDH inhibitor DEAB (reference value: 20%); assay type: functional; parameters: scale not given: the % may be the effect or the level left
[8] = Decrease in HER2 expression in human SKBR3 cells overexpressing HER2 by immunohistochemistry staining; assay type: functional, cell-based; details: SK-BR-3
[9] = tested on: MDA-MB-468; experiment: Cytotoxicity against human MDA-MB-468 cells assessed as cell growth inhibition at 300 uM after 48 hrs by WST-1 assay; assay type: functional, cell-based
[10] = tested on: MCF7; experiment: Cytotoxicity against human MCF7 cells assessed as cell growth inhibition at 300 uM after 48 hrs by WST-1 assay; assay type: functional, cell-based
[11] = tested on: SK-BR-3; experiment: Inhibition of cell migration in human SKBR3 cells overexpressing HER2 at 25 uM after 8 hrs by microtiter plate reader analysis; assay type: functional; details: SK-BR-3, 8 h
[12] = tested on: MDA-MB-231; experiment: Inhibition of cell migration in human MDA-MB-231 cells at 25 uM after 8 hrs by microtiter plate reader analysis; assay type: functional; details: MDA-MB-231, 8 h
[13] = tested on: MCF7; experiment: Inhibition of cell migration in human MCF7 cells at 25 uM after 8 hrs by microtiter plate reader analysis; assay type: functional; details: MCF7, 8 h
[14] = tested on: SK-BR-3; experiment: Inhibition of cell adhesion in human SKBR3 cells overexpressing HER2 at 25 uM after 30 to 90 mins by microtiter plate reader analysis; assay type: functional
[15] = tested on: MDA-MB-231; experiment: Inhibition of cell adhesion in human MDA-MB-231 cells at 25 uM after 30 to 90 mins by microtiter plate reader analysis; assay type: functional
[16] = tested on: MCF7; experiment: Inhibition of cell adhesion in human MCF7 cells at 25 uM after 30 to 90 mins by microtiter plate reader analysis; assay type: functional
[17] = tested on: MDA-MB-231; experiment: Cytotoxicity against human MDA-MB-231 cells assessed as cell growth inhibition at 300 uM after 48 hrs by WST-1 assay; assay type: functional, cell-based

Structure (SMILES)	IC50 [1]	IC50 [2]	IC50 [3]	IC50 [4]	inhibition [8]	inhibition [9]	inhibition [10]	also measured
O=c1[nH]cc(F)c(=O)[nH]1 [FLUOROURACIL]	77.3 µM	38.9 µM	34.5 µM	–	–	–	–	–
CCOc1ccc(/C=N\NC(=S)NC2CCCCC2)cc1	68.2 µM	29.9 µM	166 µM	252 µM	Active	–	–	inhibition [5]: Active; Activity [6]: 0.7%; Activity [7]: 11.1%
CC[C@@H](C(=O)[C@@H](C)[C@@H](O)[C@H](C)[C@@H]1O[C@@H]([C@@H](CC)C(=O)O)CC[C@@H]1C)[C@H]1O[C@]2(C=C[C@@H](O)[C@]3(CC[C@@](C)([C@H]4CC[C@](O)(CC)[C@H](C)O4)O3)O2)[C@H](C)C[C@@H]1C [SALINOMYCIN]	–	–	–	–	–	–	–	Activity [6]: 0.6%; Activity [7]: 30%
S=C(N/N=C\c1ccco1)NC1CCCCC1	141 µM	45.7 µM	–	–	–	inactive	inactive	–
Oc1cccc(/C=N\NC(=S)NC2CCCCC2)c1	24.5 µM	25.6 µM	–	32.2 µM	Active	–	inactive	inhibition [5]: Active
COc1cccc(/C=N\NC(=S)NC2CCCCC2)c1	88.9 µM	30.9 µM	49.9 µM	46.7 µM	Active	–	–	inhibition at 30 µM ([5]; SK-BR-3, 72 h): 50%; Activity [6]: 0.7%; Activity [7]: 9.5%; inhibition at 25 µM [11]: 46.7%; inhibition at 25 µM [12]: 31.4%; inhibition at 25 µM [13]: 32.4%; inhibition at 25 µM [14]: 45.6%; inhibition at 25 µM [15]: 32.3%; inhibition at 25 µM [16]: 15.9%
O=[N+]([O-])c1ccc(/C=N\NC(=S)NC2CCCCC2)cc1	–	41 µM	–	–	–	inactive	inactive	inhibition [17]: inactive
Oc1ccc(/C=N\NC(=S)NC2CCCCC2)cc1	115 µM	29.9 µM	50.4 µM	242 µM	Active	–	–	inhibition [5]: Active
S=C(N/N=C\c1ccc(Cl)cc1)NC1CCCCC1	38.3 µM	32.2 µM	91.4 µM	41.6 µM	–	–	–	–
CN(C)c1ccc(/C=N\NC(=S)NC2CCCCC2)cc1	125 µM	31.2 µM	51.1 µM	280 µM	–	–	–	–
Oc1ccc(/C=N\NC(=S)NC2CCCCC2)c(O)c1	56.6 µM	27.7 µM	105 µM	44.6 µM	–	–	–	–
S=C(N/N=C\c1ccc2c(c1)OCO2)NC1CCCCC1	–	61.6 µM	–	–	–	inactive	inactive	inhibition [17]: inactive
O=[N+]([O-])c1cccc(/C=N\NC(=S)NC2CCCCC2)c1	84.8 µM	34.6 µM	–	–	–	inactive	inactive	–
COc1ccc(/C=N\NC(=S)NC2CCCCC2)cc1OC	–	47.9 µM	99.2 µM	–	–	inactive	–	inhibition [17]: inactive
O=[N+]([O-])c1ccccc1/C=N\NC(=S)NC1CCCCC1	118 µM	46.5 µM	–	–	–	inactive	inactive	–
S=C(N/N=C\c1cccs1)NC1CCCCC1	58.6 µM	30.4 µM	49.8 µM	337 µM	Active	–	–	inhibition [5]: Active
